Assay results from ChEMBL document CHEMBL1129443, “Inactivation of S-adenosyl-L-homocysteine hydrolase by amide and ester derivatives of adenosine-5'-carboxylic acid” (J Med Chem, 1996).

Experiments:
Adenosylhomocysteinase [1] = target: T1, Adenosylhomocysteinase (Homo sapiens, UniProt P23526)
Target sequence in this assay (P23526 2-432 limits assumed): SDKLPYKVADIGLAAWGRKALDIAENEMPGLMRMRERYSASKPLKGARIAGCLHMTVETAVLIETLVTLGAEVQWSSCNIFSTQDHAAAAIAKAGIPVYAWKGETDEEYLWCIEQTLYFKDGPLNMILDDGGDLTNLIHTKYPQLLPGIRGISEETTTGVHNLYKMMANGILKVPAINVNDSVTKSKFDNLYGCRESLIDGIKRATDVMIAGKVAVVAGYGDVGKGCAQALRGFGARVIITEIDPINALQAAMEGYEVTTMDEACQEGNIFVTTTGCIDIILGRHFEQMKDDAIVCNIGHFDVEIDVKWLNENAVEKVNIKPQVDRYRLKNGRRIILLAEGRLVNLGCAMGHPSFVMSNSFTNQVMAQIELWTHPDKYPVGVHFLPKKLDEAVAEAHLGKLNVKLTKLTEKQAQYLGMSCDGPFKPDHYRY
Description: Inhibition of S-adenosyl-L-homocysteine hydrolase, dissociation constant.

Adenosylhomocysteinase [2] = target: T1, Adenosylhomocysteinase; assay: Inhibition of S-adenosyl-L-homocysteine hydrolase, inactivation rate constant.
Target sequence in this assay (P23526 whole entry): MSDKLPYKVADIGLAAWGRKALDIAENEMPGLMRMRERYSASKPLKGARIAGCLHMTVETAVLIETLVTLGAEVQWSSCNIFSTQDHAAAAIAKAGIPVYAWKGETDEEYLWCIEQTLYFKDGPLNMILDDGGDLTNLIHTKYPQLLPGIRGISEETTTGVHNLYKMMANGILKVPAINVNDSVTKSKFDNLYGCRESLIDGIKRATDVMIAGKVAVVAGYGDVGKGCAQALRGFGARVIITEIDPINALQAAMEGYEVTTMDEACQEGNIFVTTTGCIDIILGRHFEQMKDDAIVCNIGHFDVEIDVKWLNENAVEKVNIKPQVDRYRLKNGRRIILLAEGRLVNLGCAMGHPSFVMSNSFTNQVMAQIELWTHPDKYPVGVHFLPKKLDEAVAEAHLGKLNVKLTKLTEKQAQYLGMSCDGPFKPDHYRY

Compound | K2 (Adenosylhomocysteinase [1]) | Ki (Adenosylhomocysteinase [2])
CC(C)COC(=O)[C@H]1OC(n2cnc3c(N)ncnc32)[C@H](O)[C@@H]1O (stereo partly drawn) | 0.077 min⁻¹ | 570 nM
Nc1ncnc2c1ncn2[C@@H]1O[C@H](C(=O)O)[C@@H](O)[C@H]1O [5'-CARBOXY ADENOSINE] | 0.045 min⁻¹ | 410 nM
Nc1ncnc2c1ncn2C1O[C@H](C(=O)Nc2ccccc2)[C@@H](O)[C@H]1O (stereo partly drawn) | 0.028 min⁻¹ | 48500 nM
NC(=O)[C@H]1OC(n2cnc3c(N)ncnc32)[C@H](O)[C@@H]1O (stereo partly drawn) | 0.1 min⁻¹ | 2600 nM
Nc1ncnc2c1ncn2C1O[C@H](C(=O)NCc2ccccc2)[C@@H](O)[C@H]1O (stereo partly drawn) | 0.03 min⁻¹ | 43400 nM
Nc1ncnc2c1ncn2[C@@H]1O[C@H](C=O)[C@@H](O)[C@H]1O | 0.65 min⁻¹ | 39 nM
CCCCOC(=O)[C@H]1OC(n2cnc3c(N)ncnc32)[C@H](O)[C@@H]1O (stereo partly drawn) | 0.11 min⁻¹ | 710 nM
Nc1ncnc2c1ncn2C1O[C@H](C(=O)OCc2ccccc2)[C@@H](O)[C@H]1O (stereo partly drawn) | 0.017 min⁻¹ | 360 nM
CC(C)OC(=O)[C@H]1OC(n2cnc3c(N)ncnc32)[C@H](O)[C@@H]1O (stereo partly drawn) | 0.064 min⁻¹ | 770 nM
CCN(CC)C(=O)[C@H]1OC(n2cnc3c(N)ncnc32)[C@H](O)[C@@H]1O (stereo partly drawn) | 0.05 min⁻¹ | 570 nM
Nc1ncnc2c1ncn2C1O[C@H](C(=O)OCCCl)[C@@H](O)[C@H]1O (stereo partly drawn) | 0.35 min⁻¹ | 320 nM
CNC(=O)[C@H]1O[C@@H](n2cnc3c(N)ncnc32)[C@H](O)[C@@H]1O | 0.095 min⁻¹ | 1930 nM
CCCCNC(=O)[C@H]1OC(n2cnc3c(N)ncnc32)[C@H](O)[C@@H]1O (stereo partly drawn) | 0.03 min⁻¹ | 19800 nM
COC(=O)[C@H]1O[C@@H](n2cnc3c(N)ncnc32)[C@H](O)[C@@H]1O | 0.78 min⁻¹ | 1700 nM
